Assay results published in PMC10906223 (JCI Insight, 2024).
Where “and” joins values, the source holds several entries; their conditions need not be identical. Equal values may be shown once. Entries after “also recorded” stand apart in the source; their conditions may differ.

What was measured:
nondiabetic NOD mice = assay: Blood glucose in nondiabetic NOD mice under WCDD301 dosing; assay type: in vivo, mouse; parameters: Blood glucose (Supplemental Figure 6B): unit: mg/dL; conditions: for Blood glucose (Supplemental Figure 6B): WCDD301-treated, individual mice M1-M5
Experimental: (§1) We applied the following therapeutic regimens in the fed state for oral dosing of pearls containing WCDD301. The therapeutic regimen for diabetic NOD mice with moderate hyperglycemia (n = 6–9; 6 females/3 males) or nondiabetic ones with blood glucose levels of < 140 mg/dL (females, n = 5) was dose 7.5 mg/kg, dosage once a day, and excipient SAIB-Agar, 50–60 mg. The therapeutic regimen for STZ-induced diabetic mice with early severe hyperglycemia (n = 3, placebo group; n = 4 treatment group, females) was dose 10 mg/kg, dosage once a day, and excipient SAIB-Agar-malic acid, 50–60 mg.

[1] = Microsomal stability assay, CD-1 mouse liver microsomes; assay type: in vitro ADME; conditions: for Remaining in hepatic microsomes (100 at 0 min): mouse microsomes, Figure 5D
Experimental: (§2) A total of 445 μL of the working solution was transferred into prewarmed incubation plates for treated (T60) and control (NCF60) measurements. After preincubation (10 minutes at 37°C with constant shaking), 54 μL was transferred to the blank plate, followed by 6 μL of NADPH and 180 μL quenching solution. In parallel, 5 μL of WCDD301 (100 μM) was added into incubation plates (T60 and NCF60) containing microsomes and mixed thoroughly (3 times). For the NCF60 plate, 50 μL of buffer was added, mixed (thoroughly, 3 times), shaken, and incubated at 37°C for 60 minutes. In the quenching plate T0, quenching solution (180 μL) and NADPH cofactor (6 μL) were added. For T60 plate, 54 μL of the mixture was placed into the quenching plate (for T0 point), followed by adding 44 μL NADPH cofactor with shaking incubation at 37°C for 60 minutes. Quenching solution (180 μL) was added to quenching plates at 5, 15, 30, 45, and 60 minutes, and 60 μL of sample was transferred from T60 plate per time point to the quenching plates. For the NCF60 plates, 60 μL sample from the NCF60 incubation plate was transferred to the quenching plate (containing quenching solution) at the 60-minute time point. After plates were shaken for 10 minutes and centrifuged (1,750g, 20 minutes at 4°C), 80 μL of the supernatant was transferred into 240 μL HPLC water for LC-MS/MS analysis. The following first-order kinetic equation was used to calculate half-life (T1/2): [drawing 3]; when
(§3) Then, intrinsic clearance [CLint (microsomal; mic)] and hepatic clearance [CLint (liver)] were predicted using the following equations ([66]): […]

diabetic NOD mice = assay: Blood glucose in diabetic NOD mice, once-daily oral WCDD301 in SAIB-Agar; assay type: in vivo, mouse; parameters: Blood glucose: unit: mg/dL; conditions: for Blood glucose: oral 7.5 mg/kg once daily, per mouse, Figure 6A, 7.5 mg/kg
Experimental: For the polygenic model for T1D (the Jackson Laboratory), 10 cohorts of independent NOD/shiLTJ mice (each 10, equal numbers of females and males) were purchased at 7–9 weeks old. Blood glucose levels were monitored twice a week using a glucometer (Glucocard Vital) to find those mice at risk of diabetes. Diabetes was confirmed when the blood glucose levels remained at 200–250 mg/dL for 3 consecutive days. This profile of the blood glucose level is referred to as moderate hyperglycemia.
We prepared sustained time-release pearls for oral administration in the mouse models. To this end, we combined FDA-approved excipients of Eastman BioSustane SAIB NF (product code: 41271-00, sample distribution from Eastman Company, Kingsport, Tennessee, USA; provided by Phillip Cook) and Agar (Lamda Biotech, catalog C110) at the ratio of 1:1.45 (w/w). We also prepared another type of sustained time-release pearl by mixing SAIB, Agar, and L (-) malic acid (MilliporeSigma, catalog 202-601-5) at the ratio of 1:1.4:0.2 (w/w/w). A homogenous paste mixture was prepared, and pearls were formed with 50–60 mg weight and approximately 2 mm diameter by pinching off the mixture and manually rolling.
We preweighed WCDD301 into microfuge tubes and reconstituted it using deionized water. Using a 10 μL pipette tip, we placed the calculated dose of WCDD301 (at the volume range of 1–1.5 μL) within the center of pearls. WCDD301 was placed into pearls 30–45 minutes before administration. For oral administration of pearls, we designed an applicator using a disposable plastic transfer pipette and syringe plunger lubricated with olive oil. Food intake and body weight in each experimental group (diabetic WCDD301-treated, diabetic placebo-treated, and nondiabetic placebo-treated NOD mice) were monitored daily for 4 weeks. Urine glucose was measured from individually caged NOD mice (nondiabetic placebo treated n = 2, diabetic placebo treated n = 2, and diabetic WCDD301 treated n = 4, 21–23 weeks old) with metabolic cages. Urine glucose was monitored every 24 hours for 10 days by semiquantitative measurements (P-STICKS, Millpledge Veterinary).
as §1

[2] = Microsomal stability assay, human liver microsomes; assay type: in vitro ADME; conditions: for Remaining in hepatic microsomes (100 at 0 min): human microsomes, Figure 5C
Experimental: as §2, §3

CC(=O)OCC(N)(COC(C)=O)COC(C)=O [WCDD301, 2-(acetoxymethyl)-2-aminopropane-1,3-diyl diacetate]
Development of diabetes, prophylactic administration (nondiabetic NOD mice; NOD mice): appears to prevent the development of diabetes in NOD mice
Blood glucose (Supplemental Figure 6B) (nondiabetic NOD mice; Age (week) 10): 127 and 120 and 125 and 115 and 118
Blood glucose (Supplemental Figure 6B) (nondiabetic NOD mice; Age (week) 19): 128 and 122 and 121 and 112 and 126
Effect on euglycemia (nondiabetic NOD mice; nondiabetic NOD mice, Supplemental Figure 6B): nor did it affect euglycemia
half-life at 1 µM ([1]; CD-1, mouse, liver microsomes): 1.56 h
microsomal CLint at 1 µM ([1]; CD-1, mouse, liver microsomes, read-out: Intrinsic microsomal clearance): 14.8 µL/min/mg
Remaining in hepatic microsomes (100 at 0 min) ([1]; 5 min): 95.6
Remaining in hepatic microsomes (100 at 0 min) ([1]; 15 min): 86.5
Remaining in hepatic microsomes (100 at 0 min) ([1]; 30 min): 79.8
Remaining in hepatic microsomes (100 at 0 min) ([1]; 45 min): 69.6
Remaining in hepatic microsomes (100 at 0 min) ([1]; 60 min): 64.2
Hepatic clearance ([1]; mouse, predicted from microsomal data): 58.7 mL/min/kg
Blood glucose (Supplemental Figure 6A) (diabetic NOD mice; 48h later (after stopping dosing)): 350 mg/dL and 370 mg/dL and 330 mg/dL
Blood glucose (Supplemental Figure 6A) (diabetic NOD mice; A week after resuming dosing): 119 mg/dL and 124 mg/dL and 131 mg/dL
Blood glucose (Supplemental Figure 6A) (diabetic NOD mice; Stoping dosing): 119 mg/dL and 109 mg/dL and 124 mg/dL
Blood glucose (Supplemental Figure 6A) (diabetic NOD mice; Week 1): 184 mg/dL and 200 mg/dL and 210 mg/dL
Blood glucose (Supplemental Figure 6A) (diabetic NOD mice; Week 2): 122 mg/dL and 116 mg/dL and 109 mg/dL
Blood glucose (Supplemental Figure 6A) (diabetic NOD mice; Week 3): 132 mg/dL and 147 mg/dL and 115 mg/dL
Effect on blood glucose (diabetic NOD mice; diabetic NOD mice, moderate hyperglycemia (200–250 mg/dL), once-daily oral, SAIB-Agar): significantly reduced blood glucose levels within a week of administration; also recorded: normalized blood glucose level during an 11-week follow-up
Time to normalized blood glucose (diabetic NOD mice; diabetic NOD mice, SAIB-Agar formulation): ≤ 2 weeks
Blood glucose (diabetic NOD mice; diabetic NOD mice, Week 1, before treatment 230-251, mg/dL): 165 and 170 and 163 and 184 and 200 and 210 and 198 and 180 and 175
Blood glucose (diabetic NOD mice; diabetic NOD mice, Week 2): 114 and 125 and 128 and 122 and 116 and 109 and 115
Blood glucose (diabetic NOD mice; diabetic NOD mice, Week 3): 120 and 115 and 116 and 132 and 147 and 109 and 110
Blood glucose (diabetic NOD mice; diabetic NOD mice, Week 4): 119 and 124 and 108 and 112 and 115 and 110
Blood glucose (diabetic NOD mice; diabetic NOD mice, Week 5): 109 and 105 and 115 and 118 and 117
Blood glucose (diabetic NOD mice; diabetic NOD mice, Week 6): 105 and 107 and 104 and 120 and 112 and 118
Blood glucose (diabetic NOD mice; diabetic NOD mice, Week 7): 109 and 105 and 106 and 110 and 118 and 116
Blood glucose (diabetic NOD mice; diabetic NOD mice, Week 8): 109 and 107 and 110 and 118 and 116
Blood glucose (diabetic NOD mice; diabetic NOD mice, Week 9): 114 and 109 and 120 and 105 and 118 and 98
Blood glucose (diabetic NOD mice; diabetic NOD mice, Week 10): 119 and 114 and 117 and 102 and 105 and 108
Blood glucose (diabetic NOD mice; diabetic NOD mice, Week 11): 109 and 112 and 116 and 114 and 108 and 110
Blood glucose after discontinuing for 48 hours and resuming dosing (diabetic NOD mice; treated diabetic NOD mice, Supplemental Figure 6A): resulted in hyperglycemia; also recorded: Euglycemia returned after resuming the WCDD301 dosing
Microsomal stability in human versus mouse preparation ([2]; human higher than mouse): > 1.5 fold
Remaining in hepatic microsomes (100 at 0 min) ([2]; 5 min): 86.1
Remaining in hepatic microsomes (100 at 0 min) ([2]; 15 min): 78
Remaining in hepatic microsomes (100 at 0 min) ([2]; 30 min): 77.8
Remaining in hepatic microsomes (100 at 0 min) ([2]; 45 min): 77.5
Remaining in hepatic microsomes (100 at 0 min) ([2]; 60 min): 72.4
half-life at 1 µM ([2]; human, liver microsomes): > 2.42 h
microsomal CLint at 1 µM ([2]; human, liver microsomes, read-out: Intrinsic microsomal clearance): < 9.6 µL/min/mg
Hepatic clearance ([2]; human, predicted from microsomal data): < 8.6 mL/min/kg
